Reference: patent publication US20240307453A1, “METHODS FOR CONTROLLING BLEEDING IN A SUBJECT AFFLICTED WITH HERMANSKY PUDLAK SYNDROME USING PLATELET DERIVATIVE COMPOSITIONS” (Cellphire, Inc., priority 2023, published 2024)

Assays:
washed platelets (WPS) = assay: Mixed aggregation of washed FPH with washed platelets (WPS) with and without EDTA and agonists; type: cell-based, human; conditions: 5 mM EDTA
Protocol: This was repeated 5 times. […] In one of the duplicates, EDTA was added to achieve a 5 mM concentration. […] These samples were prepared immediately prior to running on the PAP-8E Platelet Aggregometer. The different agonist were prediluted in HMTA according: arachidonic acid (Helena Biosciences, Helena-biosciences.com) 1:10 in HMTA, TRAP-6 (Tocris, tocris.com) by adding 7.5 μl to 292.5 μl HMTA.
The PAP-8E Platelet Aggregometer was turned on and samples were incubated with stirring for 10 minutes at 37° C. for all mixed aggregation experiments. The samples with HMTA was used as a control for agonists used in aggregation. The following agonists were used to induce aggregation in samples: 10 μg/ml collagen (Helena Biosciences, Helena-biosciences.com), 10U/ml thrombin (Helena Biosciences, Helena-biosciences.com), 10 μg/ml arachidonic acid, and 10 μM TRAP-6. 225 μl of the samples were added to cuvettes by reverse pipetting and inserted in the channels. Cuvettes were transferred from the warming wells to the testing wells. The test was started and 25 μl of each agonist was added to the appropriate cuvettes when the timer for the channel reached 8:00 minutes. HMTA was added in place of the agonist to the first channel in each module. Once measurements were completed for each agonist, the samples were transferred to a microcentrifuge tube and AcT count was taken. […]

[1] = test system: fibrinogen, GPIIIa (CD61), complexed GPIIb/IIIa (CD41); conditions: 5 mM EDTA
Protocol: EDTA (Sigma Aldrich, sigmaaldrich.com) was added to one of the duplicates to achieve a 5 mM concentration. […] Stain volumes were as follows: Unstained: 10 μl of sample and 20 μl HMTA, 9F9: 10 μl of sample, 5 μl antibody, and 15 μl HMTA, CD41: 5 μl of sample and 12 μl antibody, and CD61: 10 μl of sample, 10 μl antibody, and 10 μl HMTA. Stained samples were incubated for 20 minutes for 9F9, CD61, and vWF and 5 minutes for CD41. 470 μl of the samples were added to 9F9 and CD61 stains and 233 μl of the samples were added to CD41 stains. 100 μl of each sample was transferred to wells in a 96-well plate. All samples were measured using the Quanteon flow cytometer.

[2] = test system: FPH aggregation (GpIIbIIIa); conditions: 5 mM MgCl2, FPH 250 k/μL, tirofiban present
Protocol: A master mix of FPH or APU was prepared by combining cells dosed at 250 k/μL with HMTA to arrive at enough volume to fill 225 μl of sample into 8 cuvettes, plus extra buffer volume if necessary. 225 μl of master mix was transferred to cuvettes as specified along with a magnetic stir bar in each cuvette. […] The groups tested were as follows. (+) indicates the presence while (−) indicates the absence of the specified reagent: • 0.32 mM DMSO−/5 mM Mg−/1 mM Tiro− (negative control) • 0.32 mM DMSO+/5 mM Mg−/1 mM Tiro− (negative control) • 0.32 mM DMSO−/5 mM Mg+/1 mM Tiro− (positive control) • 0.32 mM DMSO+/5 mM Mg+/1 mM Tiro− (positive control) • 0.32 mM DMSO+/5 mM Mg−/1 mM Tiro− (#of samples=2) • 0.32 mM DMSO+/5 mM Mg−/1 mM Tiro− (#of samples=2)

GpIIbIIa receptor = target: T1, GpIIbIIa receptor (Homo sapiens, UniProt P05106+P08514); assay: Mixed aggregation of washed FPH with washed platelets with and without RGDS; type: cell-based; conditions: 1 mM RGDS
T1 construct: endogenous in cells; host or cells: FPH (freeze-dried human platelet derivatives); in A8 also washed platelets from healthy donors
Protocol: For one of the replicates of each, RGDS was added to achieve a 1 mM concentration. […] The mixture was prepared immediately prior to running on the PAP-8E Platelet Aggregometer. PAP-8E was turned on and samples were incubated with stirring for 10 minutes at 37° C. and HMTA was used as a control for collagen agonist used in aggregation. Stir bars were added to cuvettes and 225 μl of sample was added to cuvettes by reverse pipetting and inserted into channels. Cuvettes were then transferred from warming wells to the testing wells. Run was started for each channel with 10 seconds in between. 25 μl of collagen (Helena Biosciences, helenabiosciences.com) was added to appropriate cuvettes when the timer for the channel reached 8:00 minutes. HMTA was added in place of the agonist to the first channel as a control. After measurement was completed for collagen agonist, each sample was transferred to a microcentrifuge tube and AcT count was taken.

FXa = target: T2, FXa (Homo sapiens, UniProt P00742); assay: FPH thrombin generation response to Factor X blocking by rivaroxaban; type: biochemical; conditions: dose dependent blocking of Factor X
T2 construct: tissue Octophrama (so in the source); host or cells: Octaplas plasma mixed with FPH
T2 sequence (P00742 235-488 limits assumed): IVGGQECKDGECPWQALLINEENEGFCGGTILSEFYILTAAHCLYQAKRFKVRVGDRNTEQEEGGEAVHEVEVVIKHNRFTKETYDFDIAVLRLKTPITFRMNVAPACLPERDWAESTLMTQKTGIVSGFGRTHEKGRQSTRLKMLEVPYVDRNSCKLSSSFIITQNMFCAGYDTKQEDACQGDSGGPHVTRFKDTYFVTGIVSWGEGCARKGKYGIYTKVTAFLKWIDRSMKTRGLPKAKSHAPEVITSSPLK
T2 sequence (P00742 41-179 limits assumed): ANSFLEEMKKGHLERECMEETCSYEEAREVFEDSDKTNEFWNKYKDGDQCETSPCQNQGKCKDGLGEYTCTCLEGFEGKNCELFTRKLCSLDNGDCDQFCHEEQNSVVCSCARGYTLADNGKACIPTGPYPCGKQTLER
Protocol: Rivaroxaban (Cayman Chemical, caymanchem.com) was diluted in TGA dilution buffer to 0 μg/ml, […], 350 ng/ml, and 70 ng/ml. 60 mM GPRP (BACHEM, bachem.com), thrombin (Sigma Aldrich, sigmaaldrich.com) and Octoplas (Octophrama, octopharma.com) were thawed according to manufacturer's guidelines. CLARIOstarPlus was used to perform TGA. A master mix of Octaplas, PRP reagent (Diagnostica Stago, Cat. No. 86196), and GPRP was prepared in a ratio of 68:15:5, respectively. Flu substrate and Fluo-buffer were combined according to manufacturer's guidelines to create FluCa (Diagnostica Stago, stago.com). Master mix and FluCa solution were placed in the 37° C. air incubator with agitation for 45±5 minutes. […] 10 μl of each sample was dispensed into selected wells of a 96-well plate (Corning, corning.com) by reverse pipetting. TGA dilution buffer for thrombin was used in the thrombin standard ladder. […] CLARIOstarPlus injectors 1 and 2 were primed with master mix and FluCa solution with 250 μl, then the injector was placed in the active position. The CLARIOstarPlus TGA program was loaded with parameters for TGA assay with injectors set to add 90 μl of master mix and 40 μl of FluCa solution to each well. Plate was inserted to be read.

[3] = test system: FPH aggregation (surface fibrinogen); assay: MgCl2 aggregation dose response after plasmin treatment of FPH; type: cell-based, human; conditions: 0, 2, 5, 10 mM MgCl2, plasmin 1 hour
Protocol: Both master mixes were incubated at room temperature with agitation for 1 hour. […] Magnetic stir bars were placed in all the cuvettes. […] Each concentration of MgCl2 to be tested was prepared in duplicate. […] Plasmin causes the breakdown of fibrinogen.

[4] = target: T3, fibrinogen on the surface of FPH (Homo sapiens, UniProt P02671+P02675+P02679); assay: Surface marker detection of washed FPH at different plasmin concentrations; type: cell-based; conditions: 0, 1.46, 2.92, 14.6, 29.2 nkat/ml plasmin, 1 hour
T3 construct: endogenous in cells; host or cells: washed FPH (freeze-dried human platelet derivatives)
T3 sequence (P02671 20-629 limits assumed): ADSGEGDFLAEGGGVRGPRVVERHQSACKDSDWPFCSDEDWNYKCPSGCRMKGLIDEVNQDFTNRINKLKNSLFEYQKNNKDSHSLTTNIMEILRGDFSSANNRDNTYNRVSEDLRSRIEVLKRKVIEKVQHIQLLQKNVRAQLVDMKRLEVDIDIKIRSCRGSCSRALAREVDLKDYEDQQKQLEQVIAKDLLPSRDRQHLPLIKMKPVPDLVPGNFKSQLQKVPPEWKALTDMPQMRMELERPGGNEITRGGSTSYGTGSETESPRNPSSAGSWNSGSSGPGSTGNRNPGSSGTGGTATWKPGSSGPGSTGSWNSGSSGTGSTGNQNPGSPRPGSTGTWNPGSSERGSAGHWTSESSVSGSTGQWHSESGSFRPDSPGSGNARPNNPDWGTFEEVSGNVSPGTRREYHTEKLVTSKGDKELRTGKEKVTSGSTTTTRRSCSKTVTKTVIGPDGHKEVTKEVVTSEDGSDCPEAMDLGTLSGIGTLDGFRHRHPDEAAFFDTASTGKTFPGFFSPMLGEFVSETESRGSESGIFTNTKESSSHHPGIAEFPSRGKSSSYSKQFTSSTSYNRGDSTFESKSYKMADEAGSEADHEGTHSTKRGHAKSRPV
T3 sequence (P02675 31-491): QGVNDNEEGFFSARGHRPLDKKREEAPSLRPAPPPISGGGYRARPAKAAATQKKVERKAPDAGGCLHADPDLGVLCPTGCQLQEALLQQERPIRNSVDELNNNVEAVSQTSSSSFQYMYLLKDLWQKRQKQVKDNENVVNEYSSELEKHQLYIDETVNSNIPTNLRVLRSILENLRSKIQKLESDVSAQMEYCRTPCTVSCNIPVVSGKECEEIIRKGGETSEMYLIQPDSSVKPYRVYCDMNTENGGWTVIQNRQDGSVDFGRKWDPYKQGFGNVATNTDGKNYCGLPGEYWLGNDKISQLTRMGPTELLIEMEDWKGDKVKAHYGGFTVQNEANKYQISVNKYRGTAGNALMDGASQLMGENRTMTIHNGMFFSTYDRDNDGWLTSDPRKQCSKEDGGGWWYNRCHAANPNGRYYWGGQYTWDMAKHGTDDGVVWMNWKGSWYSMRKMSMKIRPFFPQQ
T3 sequence (P02679 27-453): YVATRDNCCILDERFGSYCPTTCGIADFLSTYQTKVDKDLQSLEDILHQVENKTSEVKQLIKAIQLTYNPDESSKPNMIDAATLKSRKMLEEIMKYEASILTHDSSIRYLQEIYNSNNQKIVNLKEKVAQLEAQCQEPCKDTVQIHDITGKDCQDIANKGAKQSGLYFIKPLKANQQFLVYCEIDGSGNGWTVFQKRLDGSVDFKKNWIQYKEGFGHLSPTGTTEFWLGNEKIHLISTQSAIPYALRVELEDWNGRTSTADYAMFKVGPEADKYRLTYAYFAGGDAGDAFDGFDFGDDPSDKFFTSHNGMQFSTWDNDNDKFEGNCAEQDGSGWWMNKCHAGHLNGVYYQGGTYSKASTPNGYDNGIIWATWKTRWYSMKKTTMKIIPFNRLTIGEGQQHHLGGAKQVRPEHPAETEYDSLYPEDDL

[5] = test system: aggregation of washed FPH with washed platelets; assay: Mixed aggregation of washed FPH with washed platelets with and without plasmin; type: cell-based, human; conditions: plasmin-treated washed FPH mixed with WPS
Protocol: This was repeated for optimal concentration of plasmin added based on flow results. To initiate spontaneous aggregation between the washed platelets and washed FPH the following steps were performed for the mixed samples. Stir bars were added to cuvettes, 225 μl of sample was added to the cuvettes by reverse pipetting and inserted into channels. The cuvettes were transferred from the warming wells to the testing wells. The run was started for each channel with 10 seconds in between. 25 μl of HMTA was added to all cuvettes once the timer for the channel reached 8:00 minutes. After measurements were completed, each sample was transferred to a microcentrifuge tube and AcT counts were taken.

[6] = washed FPH and washed platelets

Molecule: O=C(O)CN(CCN(CC(=O)O)CC(=O)O)CC(=O)O [EDTA]
- effect on aggregation between washed FPH and washed platelets (washed platelets (WPS)): prevents aggregation
- Bound fibrinogen with addition of EDTA ([1]; washed FPH): decreases slightly
- CD61 (GpIIIa) signal with addition of EDTA [1, 6]: decreased slightly
- drop in the GpIIbIIIa complex (CD41) with addition of EDTA [1, 6]: more than half

Molecule: CCCCS(=O)(=O)N[C@@H](Cc1ccc(OCCCCC2CCNCC2)cc1)C(=O)O [tirofiban]
- effect on divalent cation induced aggregation of FPH [2]: abrogated

Molecule: Arg-Gly-Asp-Ser (RGDS; printed: Arg-Gly-Asp-Ser) [GpIIbIIa receptor antagonist RGDS peptide]
- effect on mixed aggregation of washed FPH and washed platelets (GpIIbIIa receptor): inhibited aggregation
- fold lower platelet counts in untreated mixed sample in comparison to the treated mixed sample (GpIIbIIa receptor): > 2 fold

Molecule: O=C(NC[C@H]1CN(c2ccc(N3CCOCC3=O)cc2)C(=O)O1)c1ccc(Cl)s1 [Rivaroxaban]
- thrombin generation of FPH (FXa): decreasing thrombin generation
- maximum peak time of thrombin generation of FPH (FXa; 1:64 dilution): increasing maximum peak time

B1: plasmin: Plasmin causes the breakdown of fibrinogen (protein, UniProt P00747 20-580; P00747 581-810, looked up)
Plasmin heavy chain A: EPLDDYVNTQGASLFSVTKKQLGAGSIEECAAKCEEDEEFTCRAFQYHSKEQQCVIMAENRKSSIIIRMRDVVLFEKKVYLSECKTGNGKNYRGTMSKTKNGITCQKWSSTSPHRPRFSPATHPSEGLEENYCRNPDNDPQGPWCYTTDPEKRYDYCDILECEEECMHCSGENYDGKISKTMSGLECQAWDSQSPHAHGYIPSKFPNKNLKKNYCRNPDRELRPWCFTTDPNKRWELCDIPRCTTPPPSSGPTYQCLKGTGENYRGNVAVTVSGHTCQHWSAQTPHTHNRTPENFPCKNLDENYCRNPDGKRAPWCHTTNSQVRWEYCKIPSCDSSPVSTEQLAPTAPPELTPVVQDCYHGDGQSYRGTSSTTTTGKKCQSWSSMTPHRHQKTPENYPNAGLTMNYCRNPDADKGPWCFTTDPSVRWEYCNLKKCSGTEASVVAPPPVVLLPDVETPSEEDCMFGNGKGYRGKRATTVTGTPCQDWAAQEPHRHSIFTPETNPRAGLEKNYCRNPDGDVGGPWCYTTNPRKLYDYCDVPQCAAPSFDCGKPQVEPKKCPGR
Plasmin light chain B: VVGGCVAHPHSWPWQVSLRTRFGMHFCGGTLISPEWVLTAAHCLEKSPRPSSYKVILGAHQEVNLEPHVQEIEVSRLFLEPTRKDIALLKLSSPAVITDKVIPACLPSPNYVVADRTECFITGWGETQGTFGAGLLKEAQLPVIENKVCNRYEFLNGRVQSTELCAGHLAGGTDSCQGDSGGPLVCFEKDKYILQGVTSWGLGCARPNKPGVYVRVSRFVTWIEGVMRNN
modifications: Plasmin
notes: Plasmin causes the breakdown of fibrinogen
- FPH aggregation response to MgCl2 after plasmin treatment [3]: no dose dependent response
- effect on fibrinogen on the surface of FPH [4]: degrades fibrinogen on the surface of FPH
- effect on aggregation of washed FPH with washed platelets [5]: inhibits the aggregation
